Results published in patent publication US8431530B2, “Compositions and methods for treating aids or cancer by inhibiting the secretion of microparticles” (priority 2009, dated 2013).

Tests used:
pNL4-3 in Jurkat cells = assay: p24 assay of virion production after pNL4-3 co-transfection; format: cell-based, HIV; conditions: for amount of virus production (in words, Table I): 96 hours, pNL4-3 co-transfection; for p24 / Effect (a/b): Jurkat; for p24: co-transfected with pNL4-3; for Effect (a/b): p24 of sample / p24 of pNL4-3 + sM1
Description: I. Jurkat cells were co-transfected as shown below: (transfection efficiency 30-40% by Chariot Kit):
(§1) pNL4-3 is a clone containing the viral genome. Transfection into cells allows expression of the viral genome and ultimately virion formation and release. The amount of virion production in the extracellular supernatant is measured through p24 protein (viral protein). Samples were collected at 48 hours and 96 hours post-infection.
(§2) At 48 hr postinfection two plates in each group were removed and analyzed by: • a. p24 assay • b. Nef assay • c. Infectivity assay • At 96 hr postinfection the other two plates in each group were removed and analyzed by: • a. p24 assay • b. Nef assay • c. Infectivity assay

pNL4-3 in 293 cells = assay: as above; format: cell-based, HIV; conditions: for p24: co-transfected with pNL4-3; for Effect (a/b): p24 of sample / p24 of pNL4-3 + sM1
Description: as §1, §2

[1] = test system: R7 in Jurkat cells, HEK293 cells, THP-1 monocytes, U937 monocytes; assay: Western blot of Nef and p24 in supernatant pellets; format: cell-based, HIV; conditions: R7 co-transfection, HEK293, THP-1, U937, 400,000×g supernatant pellets
Description: (§3) At 2 hours, 3 days, 6 days, 9 days, 13 days, 15 days, 17 days, 20 days, 23 days, 27 days and 36 days post-transfection, 0.5 ml supernatant were collected from each plate, mixed with 0.5 ml fresh media and analyzed by p24 ELISA assay. 1.5 ml of supernatant were collected from each plate and spun in a TLA100 rotor at 400,000×g for 1 hour to create the pellets. The pellets were used for Western blot analysis with p24 mAb and Nef mAb.
No effect is observed for the negative control peptide (NefSMRmut). […] This is possibly due to antagonism of trafficking of viral component(s) to the cytoplasmic membrane. Ultimately this would (i) shutdown the HIV infection and (ii) block progression to AIDS.

R7; Magi/CXCR4 cells [2] = assay: Magi assay of viral infectivity, supernatants of Jurkat cells; format: cell-based, HIV; conditions: for blue staining (productively infected) Magi/CXCR4 cells: 48 hour conditioned supernatant of Jurkat cells transfected with R7 and peptide, X-Gal
Description: (§4) Magi/CXCR4 cells were exposed to 48 hour conditioned supernatants from Jurkat cells, HEK293 cells, THP-1 monocytes, or U937 monocytes transfected with either R7 viral DNA/SMRwt peptide or R7 viral DNA/SMRmt peptide. These cells were then fixed and stained with X-Gal. […] Cells productively infected with R7 are easily visualized under light microscopy by their blue nuclear staining. Magnification ×20. […] This is indicative of virus in the conditioned supernatant from the R7/negative control peptide treated cells and no virus in conditioned supernatant from the R7/antagonist treated cells.
(§5) These Magi cultures were quantitated for blue staining cells. The data was plotted as a function of time post-transfection. […] This is possibly due to antagonism of trafficking of viral component(s) to the cytoplasmic membrane. Ultimately this would shutdown the HIV infection and block progression to AIDS.

[3] = test system: HIV-1 Gag-GFP secretion, HEK293; assay: HIV-1 Gag-GFP induced secretion, fluorescent plate reader assay; format: cell-based; conditions: for SMRmt/SMRwt ratio of secretion: HEK293, HIV-1 Gag-GFP; for Increase in Secretion (relative to untransfected cells), exp condition/UT: HEK293, HIV-1 Gag-GFP (sM1 column head prints GFP/sM1), 0.5 μg peptide, 48 hours
Description: (§6) Cells were co-transfected with 0.5 μg of pQBI-HIV Gag-GFP (expresses wild type Gag protein) and either 0.5 μg of HIV-1 Nef SMRwt, SMRmut peptide, sM1 peptide or untransfected controls with Chariot for 48 hours. The conditioned supernatants from these cultures were assayed for GFP fluorescence by plate reader.

[4] = test system: HIV-1 Gag-GFP secretion, Jurkat; assay: as above; format: cell-based; conditions: for SMRmt/SMRwt ratio of secretion: HIV-1 Gag-GFP; for Increase in Secretion (relative to untransfected cells), exp condition/UT: HIV-1 Gag-GFP (sM1 column head prints GFP/sM1), 0.5 μg peptide, 48 hours
Description: as §6

[5] = test system: HIV-1 Gag-GFP secretion, THP-1; assay: as above; format: cell-based; conditions: for SMRmt/SMRwt ratio of secretion: THP-1, HIV-1 Gag-GFP; for Increase in Secretion (relative to untransfected cells), exp condition/UT: THP-1, HIV-1 Gag-GFP (sM1 column head prints GFP/sM1), 0.5 μg peptide, 48 hours
Description: as §6

[6] = test system: HIV-1 Gag-GFP secretion, U937; assay: as above; format: cell-based; conditions: for SMRmt/SMRwt ratio of secretion: U937, HIV-1 Gag-GFP; for Increase in Secretion (relative to untransfected cells), exp condition/UT: U937, HIV-1 Gag-GFP (sM1 column head prints GFP/sM1), 0.5 μg peptide, 48 hours
Description: as §6

[7] = test system: Gag-GFP + HIV-1wtNef-RFP secretion, Jurkat; assay: Gag-GFP secretion in presence of wtNef-RFP, fluorescent plate reader assay; format: cell-based; conditions: for Secretion relative to untransfected cells: Jurkat, Gag-GFP + HIV-1wtNef-RFP + peptide, 48 hours
Description: (§7) Cells were transfected with the pQBI-HIV Gag-GFP construct, wtNef-RFP, and either the antagonist (SMRwt peptide), the negative control SMRmt peptide, or a random peptide sM1 with Chariot for 48 hours. The conditioned supernatants from these cultures were assayed for GFP fluorescence by plate reader.

[8] = test system: Gag-GFP + HIV-1wtNef-RFP secretion, THP-1 Monocyte; assay: as above; format: cell-based; conditions: Gag-GFP + HIV-1wtNef-RFP + peptide, 48 hours
Description: as §7

[9] = test system: HIV-1wtNef-GFP vesicle secretion in Jurkat cells; assay: Nef-GFP co-transfection secretion assay; format: cell-based; conditions: 500 ng HIV-1wtNef-GFP + 7.8-500 ng peptide, Chariot
Description: In another experiment, Jurkat cells were co-transfected with 500 ng HIV-1wtNef-GFP and 7.8-500 ng of SMRwt peptide by Chariot. As shown in FIG. 3A the SMRwt peptide inhibits the vesicle secretion in Jurkat cells.

R7 in U937 monocytes = assay: p24 ELISA of supernatant after R7 co-transfection; format: cell-based, HIV; conditions: up to 36 days
Description: Jurkat cells, HEK293 cells, THP-1 monocytes and U937 monocytes were co-transfected with either R7 […] Nef SMR wt (antagonist) or with R7+Nef SMR mt (nonfunctional antagonist) by Chariot™ Kit. The transfection efficiency was 30-40%.
R7 is a clone containing the viral genome. Transfection into cells allows expression of the viral genome and ultimately virion formation and release. The amount of virion production in the extracellular supernatant is measured through p24 protein (viral protein).
as §3

R7; Magi/CXCR4 cells [10] = assay: Magi assay of viral infectivity, supernatants of THP-1 monocytes; format: cell-based, HIV; conditions: supernatant from transfected THP-1 monocytes
Description: as §4, §5

## H2N-AGFPVAAAGFPVDYKDDDDK-OH (H-AGFPVAAAGFPVDYKDDDDK-OH) [SMRmt]
pNL4-3 in Jurkat cells
  amount of virus production (in words, Table I): no effect
pNL4-3 in Jurkat cells; 48 hr
  p24: 0 pg/mL
  Effect (a/b): 1
pNL4-3 in Jurkat cells; 96 hr
  p24: 15 pg/mL
  Effect (a/b): 0.5
pNL4-3 in 293 cells; 293, 48 hr
  p24: 30 pg/mL
  Effect (a/b): 0.67
pNL4-3 in 293 cells; 293, 96 hr
  p24: 1125 pg/mL
  Effect (a/b): 1.17
[1]
  amount of virus production (Western blot of p24 and Nef): No effect
R7; Magi/CXCR4 cells [2]
  blue staining (productively infected) Magi/CXCR4 cells: many blue staining cells
[3]
  SMRmt/SMRwt ratio of secretion: 1.08y
  Increase in Secretion (relative to untransfected cells), exp condition/UT: 25.96x
[4]
  SMRmt/SMRwt ratio of secretion: 1.22y
  Increase in Secretion (relative to untransfected cells), exp condition/UT: 58.22x
[5]
  SMRmt/SMRwt ratio of secretion: 1.08y
  Increase in Secretion (relative to untransfected cells), exp condition/UT: 45.06x
[6]
  SMRmt/SMRwt ratio of secretion: 1y
  Increase in Secretion (relative to untransfected cells), exp condition/UT: 43.82x
[7]; first line
  Secretion relative to untransfected cells: 55.73x
[7]; second line (not explained)
  Secretion relative to untransfected cells: 43.51x
[8]; first line
  Secretion relative to untransfected cells: 49.27x
[8]; second line (not explained)
  Secretion relative to untransfected cells: 22.24x

## H-VGFPVAAVGFPVDYKDDDDK-OH [SMRwt]
[9]
  vesicle secretion (Nef-GFP): inhibits the vesicle secretion in Jurkat cells in a dose-dependent manner
pNL4-3 in Jurkat cells
  amount of virus production (in words, Table I): reduced drastically
pNL4-3 in Jurkat cells; 48 hr
  p24: 0 pg/mL
  Effect (a/b): 1
pNL4-3 in Jurkat cells; 96 hr
  p24: 0 pg/mL
  Effect (a/b): <0.033
pNL4-3 in 293 cells; 293, 48 hr
  p24: 90 pg/mL
  Effect (a/b): 2
pNL4-3 in 293 cells; 293, 96 hr
  p24: 345 pg/mL
  Effect (a/b): 0.359
R7 in U937 monocytes
  p24 in supernatant: little p24
[1]
  amount of virus production (Western blot of p24 and Nef): drastically reduced to zero or close to zero
R7; Magi/CXCR4 cells [2]
  blue staining (productively infected) Magi/CXCR4 cells: drastically reduced numbers of blue staining cells
R7; Magi/CXCR4 cells [2]; supernatant from transfected Jurkat cells
  numbers of infected Magi cells as a function of time post-transfection: significantly reduced
R7; Magi/CXCR4 cells [10]
  numbers of infected Magi cells as a function of time post-transfection: significantly reduced
[3]
  SMRmt/SMRwt ratio of secretion: 1y
  Increase in Secretion (relative to untransfected cells), exp condition/UT: 24.22x
[4]; Gag-GFP alone, HEK293, THP-1, U937
  Gag virus-like particle release (in words, Table II): no effect on Gag virus-like particle release
[4]
  SMRmt/SMRwt ratio of secretion: 1y
  Increase in Secretion (relative to untransfected cells), exp condition/UT: 47.46x
[5]
  SMRmt/SMRwt ratio of secretion: 1y
  Increase in Secretion (relative to untransfected cells), exp condition/UT: 41.3x
[6]
  SMRmt/SMRwt ratio of secretion: 1y
  Increase in Secretion (relative to untransfected cells), exp condition/UT: 43.95x
[7]; Jurkat and THP-1, Gag-GFP + wtNef-RFP
  release of Gag virus-like particles in the presence of wtNef-RFP (in words, Table III): blocks release of Gag virus-like particles
[7]; first line
  Secretion relative to untransfected cells: 1.3x
[7]; second line (not explained)
  Secretion relative to untransfected cells: 1.16x
[8]; first line
  Secretion relative to untransfected cells: 0.95x
[8]; second line (not explained)
  Secretion relative to untransfected cells: 0.91x
